# Tested on: breast cancer cell line MX-1
# Test: MX-1 cell line proliferation assay (3-day, Cell Titer Glo)
# Assay type: cell-based
# Settings: Homo sapiens, MX1, MX-1 cells, 72 hours, read-out: Cellular proliferation: EC50
# Experimental: The impact of compounds of the Examples on cancer cell proliferation was determined using the breast cancer cell line MX-1 (ATCC) in a 3-day proliferation assay. MX-1 cells were maintained in RPMI supplemented with 10% FBS at 37° C. and an atmosphere of 5% CO2. For compound testing, MX-1 cells were plated in 96-well black bottom plates at a density of 5000 cells/well in 90 μL of culture media and incubated at 37° overnight to allow cell adhesion and spreading. Compound dilution series were prepared in DMSO via a 3-fold serial dilution from 3 mM to […]. The DMSO dilution series were then diluted 1:100 in phosphate buffered saline, and 10 μL of the resulted solution were added to the appropriate wells of the MX-1 cell plate. The final compound concentrations in the wells were 3, 1, 0.3, 0.1, 0.03, 0.01, 0.003, 0.001, 0.0003, 0.0001, and 0.00003 μM.
# Luminescence readings from the Cell Titer Glo assay were normalized to the DMSO treated cells and analyzed using the GraphPad Prism software with sigmoidal curve fitting to obtain EC50s. The minimum significant ratio (MSR) was determined to evaluate assay reproducibility (Eastwood et al., (2006) J Biomol Screen, 11: 253-261). The overall MSR was determined to be 2.1 and a moving MSR (last six run MSR overtime) has been <2. The EC50 values are reported in Table 1 for the indicated compounds.
row,EC50 [nM],Structure (SMILES)
1,505,"CCOc1cc(=O)n(C)cc1-c1cc(N(Cc2cccnc2)S(=O)(=O)CC)ccc1Oc1ccc(F)cc1F [Example 91, N-[4-(2,4-difluorophenoxy)-3-(4-ethoxy-1-methyl-6-oxo-1,6-dihydropyridin-3-yl)phenyl]-N-(pyridin-3-ylmethyl)ethanesulfonamide]"
2,> 1000,"CCOc1cc(=O)n(C)cc1-c1cc(N(Cc2cncnc2)S(=O)(=O)CC)ccc1Oc1ccc(F)cc1F [Example 93, N-[4-(2,4-difluorophenoxy)-3-(4-ethoxy-1-methyl-6-oxo-1,6-dihydropyridin-3-yl)phenyl]-N-(pyrimidin-5-ylmethyl)ethanesulfonamide]"
3,550,"CCOc1cc(=O)n(C)cc1-c1cc(N(Cc2cnn(C)c2)S(=O)(=O)CC)ccc1Oc1ccc(F)cc1F [Example 97, N-[4-(2,4-difluorophenoxy)-3-(4-ethoxy-1-methyl-6-oxo-1,6-dihydropyridin-3-yl)phenyl]-N-[(1-methyl-1H-pyrazol-4-yl)methyl]ethanesulfonamide]"
4,> 1000,"CCOc1cc(=O)n(C)cc1-c1cc(N(Cc2cnn(C)c2)S(=O)(=O)Cc2ccccc2)ccc1Oc1ccc(F)cc1F [Example 98, N-[4-(2,4-difluorophenoxy)-3-(4-ethoxy-1-methyl-6-oxo-1,6-dihydropyridin-3-yl)phenyl]-N-[(1-methyl-1H-pyrazol-4-yl)methyl]-1-phenylmethanesulfonamide]"
5,555,"CCOc1cc(=O)n(C)cc1-c1cc(N(Cc2nccs2)S(=O)(=O)CC)ccc1Oc1ccc(F)cc1F [Example 99, N-[4-(2,4-difluorophenoxy)-3-(4-ethoxy-1-methyl-6-oxo-1,6-dihydropyridin-3-yl)phenyl]-N-(1,3-thiazol-2-ylmethyl)ethanesulfonamide]"
6,> 1000,"CCOc1cc(=O)n(C)cc1-c1cc(N(Cc2cn(C)cn2)S(=O)(=O)CC)ccc1Oc1ccc(F)cc1F [Example 100, N-[4-(2,4-difluorophenoxy)-3-(4-ethoxy-1-methyl-6-oxo-1,6-dihydropyridin-3-yl)phenyl]-N-[(1-methyl-1H-imidazol-4-yl)methyl]ethanesulfonamide]"

# Second part, the molecule before the results:
row,Structure (SMILES),EC50 [nM]
1,"CCOc1cc(=O)n(C)cc1-c1cc(N(Cc2nccs2)S(=O)(=O)Cc2ccccc2)ccc1Oc1ccc(F)cc1F [Example 90, N-[4-(2,4-difluorophenoxy)-3-(4-ethoxy-1-methyl-6-oxo-1,6-dihydropyridin-3-yl)phenyl]-1-phenyl-N-(1,3-thiazol-2-ylmethyl)methanesulfonamide]",> 1000
2,"CCOc1cc(=O)n(C)cc1-c1cc(N(Cc2cccnc2)S(=O)(=O)Cc2ccccc2)ccc1Oc1ccc(F)cc1F [Example 92, N-[4-(2,4-difluorophenoxy)-3-(4-ethoxy-1-methyl-6-oxo-1,6-dihydropyridin-3-yl)phenyl]-1-phenyl-N-(pyridin-3-ylmethyl)methanesulfonamide]",> 1000
3,"CCOc1cc(=O)n(C)cc1-c1cc(N(Cc2cnccn2)S(=O)(=O)CC)ccc1Oc1ccc(F)cc1F [Example 95, N-[4-(2,4-difluorophenoxy)-3-(4-ethoxy-1-methyl-6-oxo-1,6-dihydropyridin-3-yl)phenyl]-N-(pyrazin-2-ylmethyl)ethanesulfonamide]",> 1000
4,"CCOc1cc(=O)n(C)cc1-c1cc(N(Cc2cnccn2)S(=O)(=O)Cc2ccccc2)ccc1Oc1ccc(F)cc1F [Example 96, N-[4-(2,4-difluorophenoxy)-3-(4-ethoxy-1-methyl-6-oxo-1,6-dihydropyridin-3-yl)phenyl]-1-phenyl-N-(pyrazin-2-ylmethyl)methanesulfonamide]",> 1000
5,"CCOc1cc(=O)n(C)cc1-c1cc(N(Cc2cn(C)cn2)S(=O)(=O)Cc2ccccc2)ccc1Oc1ccc(F)cc1F [Example 101, N-[4-(2,4-difluorophenoxy)-3-(4-ethoxy-1-methyl-6-oxo-1,6-dihydropyridin-3-yl)phenyl]-N-[(1-methyl-1H-imidazol-4-yl)methyl]-1-phenylmethanesulfonamide]",> 1000
6,"CCOc1cc(=O)n(C)cc1-c1cc(N(C[C@H]2COCCO2)S(=O)(=O)CC)ccc1Oc1ccc(F)cc1F [Example 102, N-[4-(2,4-difluorophenoxy)-3-(4-ethoxy-1-methyl-6-oxo-1,6-dihydropyridin-3-yl)phenyl]-N-[(2S)-1,4-dioxan-2-ylmethyl]ethanesulfonamide]",710
7,"CCOc1cc(=O)n(C)cc1-c1cc(N(CC2CCOCC2)S(=O)(=O)CC)ccc1Oc1ccc(F)cc1F [Example 103, N-[4-(2,4-difluorophenoxy)-3-(4-ethoxy-1-methyl-6-oxo-1,6-dihydropyridin-3-yl)phenyl]-N-(tetrahydro-2H-pyran-4-ylmethyl)ethanesulfonamide]",677

# — patent US9428514B2, “Bromodomain inhibitors” (AbbVie Inc., priority 2013, dated 2016)
